Results: patent publication US6440980B1, “Synergistic inhibition of viral replication by long-chain hydrocarbons and nucleoside analogs” (Avanir Pharmaceuticals, priority 1996, dated 2002)
Like-named read-outs stand apart in the source and are kept apart here.

Columns and labels:
[1] = tested on: Vero cells
[2] = tested on: HSV-2; assay: Cutaneous HSV-2 model in hairless guinea pigs, combination cream (Example 15); assay type: in vivo; conditions: 96 hours post-HSV-2-inoculation; cream two times daily; untreated mean 27 vesicles
[3] = tested on: Varicella Zoster Virus (VZV); assay: VZV infectious center assay in MRC-5 cells; assay type: cell-based, human varicella zoster virus (Ellen strain); conditions: for EC50: Human alphaherpesvirus 3, MRC5, read-out: ACV Efficacy EC50 (μM), VZV; for EC90: Human alphaherpesvirus 3, MRC5, read-out: ACV Efficacy EC90 (μM), VZV
[4] = tested on: vaccinia virus; assay: microbe, parasite or virus in culture; assay type: cell-based, vaccinia virus (WR strain); conditions: with or without n-docosanol
[5] = tested on: Cytomegalovirus (CMV); assay: CMV infectious center assay in MRC-5 cells; assay type: cell-based, human cytomegalovirus (Towne strain); conditions: for EC50: Human betaherpesvirus 5, MRC5, read-out: ACV Efficacy EC50 (μM), CMV; for EC90: Human betaherpesvirus 5, MRC5, read-out: ACV Efficacy EC90 (μM), CMV
[6] = tested on: HSV-2; assay: Inhibition of HSV-2 plaque formation in Vero cells; conditions: for EC50: Human alphaherpesvirus 2, Vero
[7] = cited from earlier work
[8] = tested on: HSV-1; assay: HSV-1 PFU production in Vero cell cultures; assay type: cell-based, HSV-1 (MacIntyre strain)
[9] = tested on: HSV-2; assay: Topical treatment of HSV-2 in guinea pig model, number of vesicles (Example 9); assay type: in vivo, hairless guinea pigs; conditions: mean; for Number of Vesicles Day 2: 48 hr post-inoculation; for Number of Vesicles Day 3: 72 hr post-inoculation; for Number of Vesicles Day 4: 96 hr post-inoculation
[10] = male, hairless, guinea pig, in vivo, 2 day
[11] = tested on: Vero cells; assay: Cytotoxicity to Vero cells (monolayer integrity, trypan blue exclusion)
[12] = tested on: HSV-2; assay: Transmucosal suppository treatment of HSV-2 infection (Example 13); assay type: in vivo, human; conditions: 8 mM brassidyl alcohol suppositories
Procedure: Suppositories containing 8 mM brassidyl alcohol in a nonionic detergent suspension, prepared essentially as in Examples 1 and 5, are formulated by adding anhydrous dextrose (300-400 mg/suppository), vegetable starch (300-400 mg/suppository) and magnesium stearate (5-10 mg/suppository) to produce a mixture that is compressed into suppositories (1-10 g per suppository) for vaginal insertion.
Fifteen HSV-2 infected women with past histories of vaginal and/or perivaginal herpes lesions are provided with the suppositories and instructed to use one to four suppositories per day when herpes lesions or discomfort associated with herpes lesions are detected. The women are instructed to record their observations about the duration of the active infection, the severity of the lesions (erythema, papule, vesicle, edema or scab phases), the relative numbers of lesions detected to past occurrences of active infection, and the subjective degrees of pain or discomfort associated with the active infection episode. The women are instructed to use the suppositories as soon as active infection or symptoms of active infection are detected. The women have a past mean of 12 days duration for lesions that develop into vesicles if untreated.

[13] = tested on: HSV-1; assay: Inhibition of HSV-1 plaque formation in Vero cells (brassidyl alcohol, TETRONIC-908 suspension); conditions: Human alphaherpesvirus 1, Vero, read-out: Percent Inhibition of Plaque Formation
[14] = tested on: all cell lines tested; assay: Cytotoxicity in mammalian cell cultures; conditions: surfactant suspensions
Text: Three assays were used to quantitate the effects of aliphatic alcohols on cell survival and proliferation: 1) counting cells with a hemocytometer and determining the number of cells that exclude trypan blue; 2) measuring the incorporation of ^3H-thymidine into cellular DNA by adding ^3H-thymidine (from New England Nuclear) to the culture medium, lysing the cells with water and harvesting the DNA onto filter paper; and 3) measuring total cellular protein using a sulforhodamine assay adapted for use in 96-well microtiter plates (Skehan et al., J. Natl. Cancer Inst. […] All of these methods are well known cell viability and cytotoxicity assays.

[15] = tested on: EBV; assay: Systemic treatment of EBV infection, infectious mononucleosis (Example 14); assay type: in vivo, human; conditions: 10 mM n-hexacosanol suspension injected
Procedure: Ten young adults (age 14-19 yr) diagnosed with infectious mononucleosis (sore throat, fever, malaise, generalized lymphadenopathy, atypical mononucleosis T-lymphocytes in peripheral blood, a total white cell count of 12,000-18,000 in the blood) are treated systemically with a sterile aqueous suspension of a nonionic detergent surfactant containing 10 mM n-hexacosanol, prepared essentially as in Example 1. The suspension is injected (intramuscular or intravenous) in dosages of 0.1 mg/kg to 0.02 gm/kg of the aliphatic alcohol administered by a physician under clinical conditions. The symptoms of the individuals are then monitored daily for one week and weekly for three months for indications of infectious mononucleosis. All of the individuals test EBV-positive at the end of the study period as determined by detection of anti-EBV antibodies in their serum using standard immunoassays.

For `Nc1nc2c(ncn2COCCO)c(=O)[nH]1` [ACV, 9-(2-hydroxy)-ethoxymethyl-guanine], the “cellular toxicity, such as cytoplasmic vacuoles” value [1] was “not observed”, the “reduction of mean vesicle numbers” value [2] was 50% and the EC50 ([3]; Medium Only) was 3 µM. For the same molecule, the EC50 ([3]; with Pluronic F-68) was 3 µM, the EC50 ([3]; with n-Docosanol, 3.3 mM) was 1 µM and the EC50 ([3]; with n-Docosanol, 10 mM) was 0.6 µM. The EC50 ([3]; with n-Docosanol, 30 mM) was 0.3 µM, the EC90 ([3]; Medium Only) was 10 µM and the EC90 ([3]; with Pluronic F-68) was 10 µM. The EC90 ([3]; with n-Docosanol, 3.3 mM) was 6 µM, the EC90 ([3]; with n-Docosanol, 10 mM) was 4 µM and the EC90 ([3]; with n-Docosanol, 30 mM) was 2 µM. For the same molecule, the “sensitivity of vaccinia virus to ACV (in words)” value [4] was “insensitive”, the “reduction of ACV EC50's and EC90's” value ([5]; CMV, n-docosanol concentrations of 10-30 mM) was 90% and the EC50 ([5]; Medium Only) was 30 µM. It also gave an EC50 ([5]; with Pluronic F-68) of 30 µM, an EC50 ([5]; with n-Docosanol, 3.3 mM) of 8 µM and an EC50 ([5]; with n-Docosanol, 10 mM) of 2 µM. For the same molecule, the EC50 ([5]; with n-Docosanol, 30 mM) was 2 µM, the EC90 ([5]; Medium Only) was 250 µM and the EC90 ([5]; with Pluronic F-68) was 250 µM. It also gave an EC90 ([5]; with n-Docosanol, 3.3 mM) of 35 µM, an EC90 ([5]; with n-Docosanol, 10 mM) of 25 µM and an EC90 ([5]; with n-Docosanol, 30 mM) of 6 µM. For the same molecule, the “enhancement of ACV activity” value ([6]; 3 mM n-docosanol) was 25 fold, the EC50 ([6]; 44 h, read-out: ACV 50% effective concentration (EC50), plaque formation, medium alone, 50 PFU HSV-2, scored 44 hours) was 0.005 mM and the EC50 ([6]; read-out: ACV EC50, plaque formation) was 0.0002 mM. The “steady state acyclovir plasma concentration” value ([7]; acyclovir 5 mg/kg by 1-hour infusions every 8 hours) was “approximately 10 μg/ml”, the “maximum average acyclovir plasma concentration” value ([7]; oral acyclovir 500 mg 5 times a day) was “approximately 0.7 μg/ml” and the “lowering of the ACV EC90” value ([8]; 3.3 mM n-docosanol) was 17 fold. For the same molecule, the “reduction of the ACV EC90” value ([8]; 10 mM n-docosanol) was 40 fold, the “reduction of EC90 by n-docosanol” value ([8]; 15 mM n-docosanol) was 21 fold and the EC90 ([8]; 15 mM n-docosanol, 500 PFU/culture, three days, read-out: EC90 for inhibition of HSV-1 PFU production in the presence of n-docosanol) was 0.9 µM. It also gave an EC90 ([8]; Human alphaherpesvirus 1, Vero, 72 h, control cultures without n-docosanol, 500 PFU/culture, three days, read-out: EC90 for inhibition of HSV-1 PFU production, drug used alone) of 19 µM, an EC90 ([8]; Human alphaherpesvirus 1, Vero, read-out: ACV EC90 for inhibition of HSV-1 production, 30 mM n-docosanol) of under 0.1 µM and an EC90 ([8]; Human alphaherpesvirus 1, Vero, read-out: ACV EC90 for inhibition of HSV-1 production, medium only or medium plus PLURONIC F-68, 500 PFU per culture, 72 hours) of 10 µM.
With `CCCCCCCCCCCCCCCCCC(=O)O` [stearic acid] the “inhibition of HSV-2 plaque formation relative to infected control cell cultures” value ([6]; 11 μM and 22 μM in TETRONIC 908, 3.5 μM in ethanol) was “less than 10%”, the “Number of Vesicles Day 2” value ([9]; 10% w/w cream topically 3X/day from 24 hr post-inoculation) was 49 and the “Number of Vesicles Day 3” value ([9]; 10% w/w cream topically 3X/day) was 17. The “Number of Vesicles Day 4” value ([9]; 10% w/w cream topically 3X/day) was 11, the “Number of Vesicles Day 2” value ([9]; 10% w/w cream topically 5X/day) was 49 and the “Number of Vesicles Day 3” value ([9]; 10% w/w cream topically 5X/day) was 13. For the same molecule, the “Number of Vesicles Day 4” value ([9]; 10% w/w cream topically 5X/day) was 5, the “Irritation Score Day 2” value [10] was 0 and the “cytotoxicity by microscopic examination” value ([11]; 11 μM and 22 μM suspensions in TETRONIC 908 and 3.5 μM solution in ethanol) was “No apparent toxicity”. The “cytotoxicity by microscopic examination” value ([11]; 44 μM TETRONIC 908 suspension and 35 μM ethanol solution) was “Moderate toxicity” and the “cytotoxicity by microscopic examination” value ([11]; suspensions and solutions of 88 μM to 350 μM) was “toxic”.
For `CCCCCCCC/C=C/CCCCCCCCCCCCO` [brassidyl alcohol, trans-13-docosen-1-ol], the “mean duration of the HSV-2 active infection, five women” value [12] was 3 to 4 days, the inhibition at 1000 µM [13] was 27% and the inhibition at 2000 µM [13] was 35%. For the same molecule, the inhibition at 4000 µM [13] was 44% and the inhibition at 8000 µM [13] was 48%.
For `CCCCCCCCCCCCCCCCCCCCCCCCCCO` [n-hexacosanol], the EC50 ([6]; read-out: 50% Inhibition Concentration (mM)) was 8.4 mM, the “cytotoxicity of the suspensions (in words)” value [14] was “same minimal level of cytotoxicity” and the “time to decrease in atypical mononucleosis T-lymphocytes in peripheral blood” value [15] was “four”.
